Measured values: patent US8748481B2, “Method for treating gastrointestinal disorder” (Sucampo AG, priority 2004, dated 2014)

Tests used:
Assay type in all cases: in vivo, human
[1] = system: subjects with occasional constipation; assay: Severity of constipation, abdominal bloating and abdominal discomfort during 6 and 12 months treatment (Example 1); details: 48 μg/day, 6 months and 12 months treatment
Experimental: (§1) Multi-center, open-label study was performed to evaluate the safety of 48 μg of Compound A (13,14-dihydro-15-keto-16,16-difluoro-PGE1) (24 μg of Compound A b.i.d) when administered daily for 24 weeks (6 months) or 48 weeks (12 months) to subjects with occasional constipation. […] After 14-day drug-free washout period, they received 48 μg of Compound A (24 μg of Compound A b.i.d) orally for 48 weeks.
Each parameter (Severity of Constipation, Abdominal bloating or Abdominal discomfort) was evaluated on the scale of: 0 (absent), 1 (mild), 2 (moderate), 3 (severe) and 4 (very severe) in the patients during 6 months (n=246) or 12 months (n=304) treatments.

[2] = Serum electrolyte balance, open-label 24/48-week safety study (Example 1)
Experimental: as §1
Sodium, potassium, chloride, calcium, magnesium and phosphorus ion concentrations in serum of patients (n=299) were measured before, and at 6, 12, 18, 24, 30, 36, 48 and 50 weeks after the start of the Compound A treatment.
The laboratory standard values for the panel of electrolytes were taken from the normal reference ranges for the central laboratory.

[3] = system: patients with chronic constipation; assay: Randomized withdrawal study, post-treatment response after 4 weeks of active treatment (Example 2)
Experimental: Multi-center, double-blind, randomized, placebo-controlled study was performed to assess post-treatment response, in a portion of the total population, after four (4) weeks of active treatment (48 μg Compound A total daily dose) and three (3) weeks randomized withdrawal period. […] After 14-day drug-free washout period, they received orally 48 μg (total daily dose) of Compound A for 28 days followed by either 0 or 48 μg (total daily dose) of Compound A for 21 days.
In this study, the following parameters were evaluated. • 1) Bowel movements per week • 2) Abdominal bloating • 3) Abdominal discomfort • 4) Severity of Constipation • 5) Straining • 6) Consistency
Each parameter (Abdominal bloating, Abdominal discomfort, Severity of Constipation or Straining) was evaluated on the scale of: 0 (absent), 1 (mild), 2 (moderate), 3 (severe) and 4 (very severe) in the patients. Consistency was evaluated on a scale of: 0 (very loose), 1 (loose), 2 (normal), 3 (hard) and 4 (very hard, little balls)

[4] = system: male and female patients with occasional constipation; assay: Weekly number of spontaneous bowel movements in male vs. female patients (Example 4); details: 48 μg/day, 4 weeks
Experimental: Multi-center, parallel-group, double-blind, placebo-controlled study was performed to compare the effect of Compound A on the weekly number of spontaneous bowel movements in male and female patients. Male and female patients with occasional constipation were received 48 μg (total daily dose) of Compound A (24 μg of Compound A b.i.d) for 4 weeks. The bowel movements in the patient were recorded during the treatment.

[5] = Week 50 after start of 48-week treatment
[6] = 48 μg/day for 28 days, then 3 weeks withdrawal

With `CCCCC(F)(F)C(=O)CCC1C(O)CC(=O)C1CCCCCCC(=O)O` (stereo not shown) [Compound A, 13,14-dihydro-15-keto-16,16-difluoro-PGE1] the “Efficacy on severity of constipation, abdominal bloating and abdominal discomfort (FIGS. 1 to 6)” value [1] was “effective”, the “Effect on sodium, potassium, chloride, calcium, magnesium and phosphorus ion concentration in serum” value ([2]; 48 μg/day, long-term administration up to 48 weeks) was “no effect” and the “Mean serum Calcium” value ([2]; Week 0 (before treatment)) was 9.61 mg/dL. For the same molecule, the “Mean serum Chloride” value ([2]; Week 0 (before treatment)) was 103.08 mmol/L, the “Mean serum Magnesium” value ([2]; Week 0 (before treatment)) was 2.18 mg/dL and the “Mean serum Phosphorus” value ([2]; Week 0 (before treatment)) was 3.65 mg/dL. The “Mean serum Potassium” value ([2]; Week 0 (before treatment)) was 4.28 mmol/L, the “Mean serum Sodium” value ([2]; Week 0 (before treatment)) was 141.00 mmol/L and the “Mean serum Calcium” value ([2]; Week 6, 48 μg/day oral) was 9.90 mg/dL. For the same molecule, the “Mean serum Chloride” value ([2]; Week 6, 48 μg/day oral) was 103.00 mmol/L, the “Mean serum Magnesium” value ([2]; Week 6, 48 μg/day oral) was 2.23 mg/dL and the “Mean serum Phosphorus” value ([2]; Week 6, 48 μg/day oral) was 3.20 mg/dL. For the same molecule, the “Mean serum Potassium” value ([2]; Week 6, 48 μg/day oral) was 4.28 mmol/L, the “Mean serum Sodium” value ([2]; Week 6, 48 μg/day oral) was 142.25 mmol/L and the “Mean serum Calcium” value ([2]; Week 12, 48 μg/day oral) was 9.71 mg/dL. For the same molecule, the “Mean serum Chloride” value ([2]; Week 12, 48 μg/day oral) was 103.08 mmol/L, the “Mean serum Magnesium” value ([2]; Week 12, 48 μg/day oral) was 2.24 mg/dL and the “Mean serum Phosphorus” value ([2]; Week 12, 48 μg/day oral) was 3.57 mg/dL. For the same molecule, the “Mean serum Potassium” value ([2]; Week 12, 48 μg/day oral) was 4.20 mmol/L, the “Mean serum Sodium” value ([2]; Week 12, 48 μg/day oral) was 139.78 mmol/L and the “Mean serum Calcium” value ([2]; Week 18, 48 μg/day oral) was 9.30 mg/dL. The “Mean serum Chloride” value ([2]; Week 18, 48 μg/day oral) was 105.50 mmol/L, the “Mean serum Magnesium” value ([2]; Week 18, 48 μg/day oral) was 2.35 mg/dL and the “Mean serum Phosphorus” value ([2]; Week 18, 48 μg/day oral) was 3.55 mg/dL. For the same molecule, the “Mean serum Potassium” value ([2]; Week 18, 48 μg/day oral) was 4.40 mmol/L, the “Mean serum Sodium” value ([2]; Week 18, 48 μg/day oral) was 141.50 mmol/L and the “Mean serum Calcium” value ([2]; Week 24, 48 μg/day oral) was 9.77 mg/dL. The “Mean serum Chloride” value ([2]; Week 24, 48 μg/day oral) was 102.56 mmol/L, the “Mean serum Magnesium” value ([2]; Week 24, 48 μg/day oral) was 2.21 mg/dL and the “Mean serum Phosphorus” value ([2]; Week 24, 48 μg/day oral) was 3.61 mg/dL. For the same molecule, the “Mean serum Potassium” value ([2]; Week 24, 48 μg/day oral) was 4.19 mmol/L, the “Mean serum Sodium” value ([2]; Week 24, 48 μg/day oral) was 139.21 mmol/L and the “Mean serum Calcium” value ([2]; Week 30, 48 μg/day oral) was 9.10 mg/dL. For the same molecule, the “Mean serum Chloride” value ([2]; Week 30, 48 μg/day oral) was 100.00 mmol/L, the “Mean serum Magnesium” value ([2]; Week 30, 48 μg/day oral) was 2.30 mg/dL and the “Mean serum Phosphorus” value ([2]; Week 30, 48 μg/day oral) was 2.50 mg/dL. For the same molecule, the “Mean serum Potassium” value ([2]; Week 30, 48 μg/day oral) was 4.30 mmol/L, the “Mean serum Sodium” value ([2]; Week 30, 48 μg/day oral) was 136.00 mmol/L and the “Mean serum Calcium” value ([2]; Week 36, 48 μg/day oral) was 9.67 mg/dL. For the same molecule, the “Mean serum Chloride” value ([2]; Week 36, 48 μg/day oral) was 102.51 mmol/L, the “Mean serum Magnesium” value ([2]; Week 36, 48 μg/day oral) was 2.19 mg/dL and the “Mean serum Phosphorus” value ([2]; Week 36, 48 μg/day oral) was 3.58 mg/dL. For the same molecule, the “Mean serum Potassium” value ([2]; Week 36, 48 μg/day oral) was 4.18 mmol/L, the “Mean serum Sodium” value ([2]; Week 36, 48 μg/day oral) was 138.94 mmol/L and the “Mean serum Calcium” value ([2]; Week 48, 48 μg/day oral) was 9.66 mg/dL. For the same molecule, the “Mean serum Chloride” value ([2]; Week 48, 48 μg/day oral) was 102.88 mmol/L, the “Mean serum Magnesium” value ([2]; Week 48, 48 μg/day oral) was 2.14 mg/dL and the “Mean serum Phosphorus” value ([2]; Week 48, 48 μg/day oral) was 3.50 mg/dL. For the same molecule, the “Mean serum Potassium” value ([2]; Week 48, 48 μg/day oral) was 4.20 mmol/L, the “Mean serum Sodium” value ([2]; Week 48, 48 μg/day oral) was 139.59 mmol/L and the “Mean serum Calcium” value [2, 5] was 9.47 mg/dL. For the same molecule, the “Mean serum Chloride” value [2, 5] was 102.67 mmol/L, the “Mean serum Magnesium” value [2, 5] was 2.31 mg/dL and the “Mean serum Phosphorus” value [2, 5] was 3.54 mg/dL. The “Mean serum Potassium” value [2, 5] was 4.49 mmol/L, the “Mean serum Sodium” value [2, 5] was 139.11 mmol/L and the “Quality of life of the patients” value ([3]; 48 μg/day) was “improved”. The “Efficacy after stopping the treatment (FIGS. 7 to 12)” value [3, 6] was “sustained”, the “Rebound effect after discontinuation of treatment (FIGS. 7 to 12)” value [3, 6] was “substantially no rebound effect” and the “Difference between the effects in male and female patients” value [4] was “no significant difference”. The “Effect on weekly number of spontaneous bowel movements (FIG. 13)” value ([4]; both male and female patients) was “significantly effective”.
